In brackets after ≈: the same amount, converted by molar mass.
Experiments:
Format in all cases: functional
Escherichia coli = assay: Antibacterial activity against Escherichia coli ATCC 25922 after 18 to 25 hrs by serial plate dilution method
[1] = tested on: Mycobacterium tuberculosis; assay: Growth inhibition of Mycobacterium tuberculosis H37Rv ATCC 27294 using compound level ranging from 1 to 100 ug/mL after 7 days by resazurin reduction test
Streptococcus pyogenes = assay: Antibacterial activity against Streptococcus pyogenes clinical isolate after 18 to 25 hrs by serial plate dilution method
[2] = tested on: Mycolicibacterium smegmatis; assay: Antimycobacterial activity against Mycobacterium smegmatis MC2 ATCC 19420 using compound level ranging from 0.3125 to 5 ug/mL after 7 days by resazurin reduction test; conditions: MC2 ATCC 19420, 168 h
Staphylococcus aureus = assay: Antibacterial activity against Staphylococcus aureus ATCC 25923 after 18 to 25 hrs by serial plate dilution method
[3] = tested on: Mycolicibacterium fortuitum; assay: Antimycobacterial activity against Mycobacterium fortuitum ATCC 19542 using compound level ranging from 1 to 100 ug/mL after 7 days by resazurin reduction test; conditions: ATCC 19542, 168 h
[4] = tested on: Mycolicibacterium smegmatis; assay: Antimycobacterial activity against Mycobacterium smegmatis MC2 ATCC 19420 using compound level ranging from 1 to 100 ug/mL after 7 days by resazurin reduction test; conditions: MC2 ATCC 19420, 168 h
[5] = tested on: Mycobacterium tuberculosis; assay: Antimycobacterial activity against Mycobacterium tuberculosis H37Rv ATCC 27294 using compound level ranging from 1 to 100 ug/mL after 7 days by resazurin reduction test; conditions: H37Rv ATCC 27294, 168 h
[6] = tested on: Mycobacterium tuberculosis; assay: Antimycobacterial activity against Mycobacterium tuberculosis H37Rv ATCC 27294 using compound level ranging from 0.3125 to 5 ug/mL after 7 days by resazurin reduction test; conditions: H37Rv ATCC 27294, 168 h
Pseudomonas aeruginosa = assay: Antibacterial activity against Pseudomonas aeruginosa ATCC 27853 after 18 to 25 hrs by serial plate dilution method
Klebsiella pneumoniae = assay: Antibacterial activity against Klebsiella pneumoniae clinical isolates after 18 to 25 hrs by serial plate dilution method
[7] = tested on: Mycolicibacterium fortuitum; assay: Antimycobacterial activity against Mycobacterium fortuitum ATCC 19542 using compound level ranging from 0.3125 to 5 ug/mL after 7 days by resazurin reduction test; conditions: ATCC 19542, 168 h

| Compound | MIC (Escherichia coli) | growth inhibition (GI) [1] | MIC (Streptococcus pyogenes) | MIC [2] | MIC (Staphylococcus aureus) | MIC [3] | MIC [4] | MIC [5] | MIC [6] | MIC (Pseudomonas aeruginosa) | MIC (Klebsiella pneumoniae) | MIC [7] |
| --- | --- | --- | --- | --- | --- | --- | --- | --- | --- | --- | --- | --- |
| O=C(N/N=C/c1ccc(OC(F)(F)C(F)F)cc1)c1cnc2c(C(F)(F)F)cccc2c1O | 6.25 µg/mL (≈ 13.1 µM) | <90% | 12.5 µg/mL (≈ 26.3 µM) | 10 µg/mL (≈ 21 µM) | 3.12 µg/mL (≈ 6.56 µM) | > 100 µg/mL | 10 µg/mL (≈ 21 µM) | 10 µg/mL (≈ 21 µM) | 5 µg/mL (≈ 10.5 µM) | 6.25 µg/mL (≈ 13.1 µM) | 3.12 µg/mL (≈ 6.56 µM) | – |
| NNC(=O)c1ccncc1 [ISONIAZID] | – | 95% | – | 50 µg/mL (≈ 365 µM) | – | 12.5 µg/mL (≈ 91.1 µM) | 50 µg/mL (≈ 365 µM) | 0.7 µg/mL (≈ 5.1 µM) | 0.7 µg/mL (≈ 5.1 µM) | – | – | 12.5 µg/mL (≈ 91.1 µM) |
| O=C(O)c1cn(C2CC2)c2cc(N3CCNCC3)c(F)cc2c1=O [CIPROFLOXACIN] | – | – | – | – | 1 µg/mL (≈ 3.02 µM) | – | – | – | – | 0.4 µg/mL (≈ 1.21 µM) | – | – |
| COc1ccc2[nH]cc(/C=N/NC(=O)c3cnc4c(C(F)(F)F)cccc4c3O)c2c1 | 0.1 µg/mL (≈ 0.233 µM) | 95% | 0.4 µg/mL (≈ 0.934 µM) | 10 µg/mL (≈ 23.3 µM) | 0.8 µg/mL (≈ 1.87 µM) | 10 µg/mL (≈ 23.3 µM) | 10 µg/mL (≈ 23.3 µM) | 1 µg/mL (≈ 2.33 µM) | 0.625 µg/mL (≈ 1.46 µM) | 0.4 µg/mL (≈ 0.934 µM) | 0.1 µg/mL (≈ 0.233 µM) | 10 µg/mL (≈ 23.3 µM) |
| COC(=O)Cc1cc(/C=N/NC(=O)c2cnc3c(C(F)(F)F)cccc3c2O)co1 | 3.12 µg/mL (≈ 7.41 µM) | <90% | 12.5 µg/mL (≈ 29.7 µM) | – | 6.25 µg/mL (≈ 14.8 µM) | > 100 µg/mL | > 100 µg/mL | 10 µg/mL (≈ 23.7 µM) | 5 µg/mL (≈ 11.9 µM) | 12.5 µg/mL (≈ 29.7 µM) | 6.25 µg/mL (≈ 14.8 µM) | – |
| O=C(NNC(=S)Nc1cccnc1)c1cnc2c(C(F)(F)F)cccc2c1O | 3.12 µg/mL (≈ 7.66 µM) | 0% | 12.5 µg/mL (≈ 30.7 µM) | – | 6.25 µg/mL (≈ 15.3 µM) | > 100 µg/mL | > 100 µg/mL | > 100 µg/mL | – | 12.5 µg/mL (≈ 30.7 µM) | 6.25 µg/mL (≈ 15.3 µM) | – |
| Cc1cc(C)cc(NC(=O)NNC(=O)c2cnc3c(C(F)(F)F)cccc3c2O)c1 | 3.12 µg/mL (≈ 7.46 µM) | <90% | 1.6 µg/mL (≈ 3.82 µM) | – | 0.8 µg/mL (≈ 1.91 µM) | > 100 µg/mL | > 100 µg/mL | 10 µg/mL (≈ 23.9 µM) | 2.5 µg/mL (≈ 5.98 µM) | 3.12 µg/mL (≈ 7.46 µM) | 3.12 µg/mL (≈ 7.46 µM) | – |
| O=C(NNC(=O)c1cnc2c(C(F)(F)F)cccc2c1O)Nc1cccc(Cl)c1 | 3.12 µg/mL (≈ 7.35 µM) | <90% | 0.4 µg/mL (≈ 0.942 µM) | – | 0.8 µg/mL (≈ 1.88 µM) | > 100 µg/mL | > 100 µg/mL | 10 µg/mL (≈ 23.5 µM) | 10 µg/mL (≈ 23.5 µM) | 1.6 µg/mL (≈ 3.77 µM) | 0.8 µg/mL (≈ 1.88 µM) | – |
| Cc1ccc(NC(=S)NNC(=O)c2cnc3c(C(F)(F)F)cccc3c2O)cc1 | 12.5 µg/mL (≈ 29.7 µM) | 0% | 3.12 µg/mL (≈ 7.42 µM) | – | 1.6 µg/mL (≈ 3.81 µM) | > 100 µg/mL | > 100 µg/mL | > 100 µg/mL | – | 6.25 µg/mL (≈ 14.9 µM) | 12.5 µg/mL (≈ 29.7 µM) | – |
| CO[C@H]1/C=C/O[C@@]2(C)Oc3c(C)c(O)c4c(O)c(c(/C=N/N5CCN(C)CC5)c(O)c4c3C2=O)NC(=O)/C(C)=C\C=C\[C@H](C)[C@H](O)[C@@H](C)[C@@H](O)[C@@H](C)[C@H](OC(C)=O)[C@@H]1C [RIFAMPIN] | – | 95% | – | 1.5 µg/mL (≈ 1.82 µM) | – | 1.5 µg/mL (≈ 1.82 µM) | 1.5 µg/mL (≈ 1.82 µM) | 0.5 µg/mL (≈ 0.608 µM) | 0.5 µg/mL (≈ 0.608 µM) | – | – | 1.5 µg/mL (≈ 1.82 µM) |
| COc1ccc(/C=N/NC(=O)c2cnc3c(C(F)(F)F)cccc3c2O)cc1O | 12.5 µg/mL (≈ 30.8 µM) | <90% | 1.6 µg/mL (≈ 3.95 µM) | – | 1.6 µg/mL (≈ 3.95 µM) | > 100 µg/mL | > 100 µg/mL | 10 µg/mL (≈ 24.7 µM) | 10 µg/mL (≈ 24.7 µM) | 6.25 µg/mL (≈ 15.4 µM) | 12.5 µg/mL (≈ 30.8 µM) | – |
| O=C(N/N=C/c1ccc2c(c1)CCO2)c1cnc2c(C(F)(F)F)cccc2c1O | 12.5 µg/mL (≈ 31.1 µM) | 0% | 3.12 µg/mL (≈ 7.77 µM) | – | 1.6 µg/mL (≈ 3.99 µM) | > 100 µg/mL | > 100 µg/mL | > 100 µg/mL | – | 3.12 µg/mL (≈ 7.77 µM) | 6.25 µg/mL (≈ 15.6 µM) | – |
| O=C(NNC(=S)Nc1cccc(Cl)c1)c1cnc2c(C(F)(F)F)cccc2c1O | 3.12 µg/mL (≈ 7.08 µM) | <90% | 1.6 µg/mL (≈ 3.63 µM) | 2.5 µg/mL (≈ 5.67 µM) | 0.8 µg/mL (≈ 1.81 µM) | > 100 µg/mL | 10 µg/mL (≈ 22.7 µM) | 10 µg/mL (≈ 22.7 µM) | 2.5 µg/mL (≈ 5.67 µM) | 3.12 µg/mL (≈ 7.08 µM) | 3.12 µg/mL (≈ 7.08 µM) | – |
| CCc1ccc(NC(=O)NNC(=O)c2cnc3c(C(F)(F)F)cccc3c2O)cc1 | 3.12 µg/mL (≈ 7.46 µM) | <90% | 12.5 µg/mL (≈ 29.9 µM) | – | 6.25 µg/mL (≈ 14.9 µM) | > 100 µg/mL | > 100 µg/mL | 10 µg/mL (≈ 23.9 µM) | 12.5 µg/mL (≈ 29.9 µM) | 12.5 µg/mL (≈ 29.9 µM) | 6.25 µg/mL (≈ 14.9 µM) | – |
| Cn1nnc2cc(/C=N\NC(=O)c3cnc4c(C(F)(F)F)cccc4c3O)ccc21 | 0.4 µg/mL (≈ 0.965 µM) | <90% | 0.4 µg/mL (≈ 0.965 µM) | – | 0.8 µg/mL (≈ 1.93 µM) | > 100 µg/mL | > 100 µg/mL | 10 µg/mL (≈ 24.1 µM) | 5 µg/mL (≈ 12.1 µM) | 1.6 µg/mL (≈ 3.86 µM) | 0.8 µg/mL (≈ 1.93 µM) | – |
| O=C(N/N=C/c1cnc[nH]1)c1cnc2c(C(F)(F)F)cccc2c1O | 0.2 µg/mL (≈ 0.573 µM) | 90% | 0.4 µg/mL (≈ 1.15 µM) | – | 0.8 µg/mL (≈ 2.29 µM) | 10 µg/mL (≈ 28.6 µM) | > 1000 µg/mL | 1 µg/mL (≈ 2.86 µM) | 1.25 µg/mL (≈ 3.58 µM) | 0.8 µg/mL (≈ 2.29 µM) | 0.4 µg/mL (≈ 1.15 µM) | 10 µg/mL (≈ 28.6 µM) |
| Cc1ccc(/C=N/NC(=O)c2cnc3c(C(F)(F)F)cccc3c2O)cc1 | 3.12 µg/mL (≈ 8.36 µM) | <90% | 3.12 µg/mL (≈ 8.36 µM) | – | 1.6 µg/mL (≈ 4.29 µM) | > 100 µg/mL | > 100 µg/mL | 10 µg/mL (≈ 26.8 µM) | 10 µg/mL (≈ 26.8 µM) | 3.12 µg/mL (≈ 8.36 µM) | 0.8 µg/mL (≈ 2.14 µM) | – |
| COc1ccc(NC(=S)NNC(=O)c2cnc3c(C(F)(F)F)cccc3c2O)cc1 | 6.25 µg/mL (≈ 14.3 µM) | <90% | 0.8 µg/mL (≈ 1.83 µM) | – | 1.6 µg/mL (≈ 3.67 µM) | > 100 µg/mL | > 100 µg/mL | 10 µg/mL (≈ 22.9 µM) | 5 µg/mL (≈ 11.5 µM) | 1.6 µg/mL (≈ 3.67 µM) | 3.12 µg/mL (≈ 7.15 µM) | – |
| CSc1ccccc1/C=N/NC(=O)c1cnc2c(C(F)(F)F)cccc2c1O | 6.25 µg/mL (≈ 15.4 µM) | 0% | 3.12 µg/mL (≈ 7.7 µM) | – | 1.6 µg/mL (≈ 3.95 µM) | > 100 µg/mL | > 100 µg/mL | > 100 µg/mL | – | 3.12 µg/mL (≈ 7.7 µM) | 3.12 µg/mL (≈ 7.7 µM) | – |
| O=C(N/N=C/c1ccncc1)c1cnc2c(C(F)(F)F)cccc2c1O | 12.5 µg/mL (≈ 34.7 µM) | 0% | 12.5 µg/mL (≈ 34.7 µM) | – | 6.25 µg/mL (≈ 17.3 µM) | > 100 µg/mL | > 100 µg/mL | > 100 µg/mL | – | 12.5 µg/mL (≈ 34.7 µM) | 6.25 µg/mL (≈ 17.3 µM) | – |

From ChEMBL document CHEMBL1909590, “Design, synthesis and docking studies of new quinoline-3-carbohydrazide derivatives as antitubercular agents” (2011)
